In patent US20090024021A1, “Methods and Systems for Using Transcranial Magnetic Stimulation and Functional Brain Mapping for Examining Cortical Sensitivity, Brain Communication, and Effects of Medication” (priority 2002, published 2009):
“Also recorded” adds a separate entry of the source.

Tested on: left motor cortex
Test: Interleaved TMS/phMRI (BOLD fMRI) with TMS over motor cortex
Assay type: in vivo, human
Conditions: for Voxels, effect of LTG (between day) / Z-score, effect of LTG (between day): Motor Cortex Stimulation, Placebo-LTG; for Z-score, effect of LTG (between day): p < .001
Procedure: Study design: We performed a randomized, double-blind, crossover trial involving two visits at least one week apart (FIG. 8). […] Serum LTG levels, RMTs, and interleaved TMS/phMRI images during both motor and then prefrontal TMS were then gathered for each subject. One week later they received LTG or placebo again, followed by identical RMT and interleaved TMS/phMRI studies.
Combined TMS and MRI: Immediately following RMT determination, interleaved TMS/phMRI acquisitions were performed in a Picker EDGE 1.5 T MR scanner with actively shielded magnet and high-performance gradients (27 mT/m, 72 T/m/sec) using a typical gradient echo, echo planar imaging (EPI) fMRI sequence (tip angle=90, TR=3 sec, FOV 27.0 cm, fifteen 7 mm thick slices, 1 mm gap). TMS was delivered using a Dantec MagPro with a special nonferromagnetic TMS coil of figure-8 design with an 8-meter cable (Dantec Medical A/S, Skovlunde, Denmark) and a room set up identical to prior TMS/fMRI studies from our group. TMS pulses and the fMRI sequence were interleaved as described before^21. Each cycle, illustrated in FIG. 9, consisted of six 21-sec sub-cycles—four Test and two task (100% RMT stimulation and 120% RMT stimulation). During each sub-cycle, the scanner acquired seven sets of 15 transverse images. During the task sub-cycles the TMS was triggered 100 ms after every […] image acquisition to produce a TMS stimulation rate of 1 Hz. The entire TMS/fMRI sequence lasted 882 sec (14.7 min).
TMS Coil Placement in the MRI scanner: Motor cortex: Before being placed into the MRI scanner, subjects had their resting motor threshold (RMT) quickly determined with the Dantec TMS while sitting on the MRI gantry. For many reasons (different capacitors, coil design, length of cable, MRI filter), the RMT determined with the Magstim in the BSL was not the same RMT needed inside the MRI scanner with the Dantec. After this new MRI RMT was determined, the TMS coil was rigidly mounted in the MR head coil with a specially designed TMS coil-holder, adjustable in six dimensions^22. Subjects wore swim caps and special earplugs. With the head coil on the gantry outside the scanner bore, subjects inserted their head into the head coil and adjusted their position while the TMS coil was intermittently pulsed with 100% RMT. Subjects adjusted their head until pulsing the coil caused visible movement of the contralateral (right) hand APB (3 out of 6). As soon as a subject's new MRI RMT-correct scalp location was determined, the holder's six dimensions and earplugs were locked. These head holder settings and RMT were recorded and used with the second visit. During the second MRI visit a week later, the headholder was set with the previous week's coordinates for that subject, and the previous RMT was used for the second visit.
Individual fMRI Data Analyses: MR scans were transferred into ANALYZE format and then further processed on Sun workstations (Sun Microsystems, Palo Alto, Calif.). Scans were checked using MEDx3.3 (Sensor Systems Inc, Sterling, Va.) for movement across runs, and then were coregistered to a mean image using automatic image registration. For all subjects, movement across the 14.7-minute study was less than 2 mm in all 3 axes. After correction of motion, we used a delayed boxcar model, employed a high-pass filter to remove signal drift, cardiac and respiratory effects, and other low frequency artifacts. Then, we spatially transformed each subject's data into the Talairach Atlas (input voxel dimensions, 2.1×2.1×8 mm, to output voxel dimensions, 4×4×4 mm), smoothed (4×2 mm) the data and generated z map with the Statistical Parametric Mapping (SPM) 96 module in MEDx3.3. We assumed an uncorrected F threshold UF P>0.99 to preserve as many voxels as possible for the cluster analysis.
Group fMRI Data Analyses: All subject's unthresholded z maps were combined based on comparison of condition (TMS vs Rest), intensity (100% RMT-TMS vs 120% RMT-TMS), visit (LTG vs Placebo). […]

Compound: Nc1nnc(-c2cccc(Cl)c2Cl)c(N)n1 [LTG, Lamotrigine]
- number of active voxels in the motor cortex underneath the TMS coil, compared with placebo (120% RMT minus rest over motor cortex, 10 subjects, Wilcoxon p=0.05): significantly decreased
- Z-score, region of activation (LTG day, within day, n = 10, 100% RMT-Rest, Left cingulate gyrus (BA 32), Talairach −4,32,28): 3.97
- Z-score, region of activation (LTG day, within day, n = 10, 100% RMT-Rest, Left insula (BA 13), Talairach −36,20,12): 3.98
- Z-score, region of activation (LTG day, within day, n = 10, 100% RMT-Rest, Left middle frontal gyrus (BA 46), Talairach −44,40,24): 4.59
- Z-score, region of activation (LTG day, within day, n = 10, 100% RMT-Rest, Right insula (BA 13), Talairach 36,8,12): 4.26
- Z-score, region of activation (LTG day, within day, n = 10, 100% RMT-Rest, Right middle frontal gyrus (BA 6), Talairach 32,8,52): 4.06
- Z-score, region of activation (LTG day, within day, n = 10, 100% RMT-Rest, Right postcentral gyrus (BA 3), Talairach 52,−16,40): 3.18
- Z-score, region of activation (LTG day, within day, n = 10, 100% RMT-Rest, Right precentral gyrus, Talairach 40,−4,32): 4.31
- Region of activation (LTG day, within day, n = 10, 120% RMT-100%): No activity
- Z-score, region of activation (LTG day, within day, n = 10, 120% RMT-Rest, Left medial frontal gyrus (BA 6), Talairach −4,60,0): 4.06
- Z-score, region of activation (LTG day, within day, n = 10, 120% RMT-Rest, Left postcentral gyrus (BA 2), Talairach −36,0,4): 4.60
- Z-score, region of activation (LTG day, within day, n = 10, 120% RMT-Rest, Left superior temporal gyrus, Talairach −60,8,24): 3.14
- Z-score, region of activation (LTG day, within day, n = 10, 120% RMT-Rest, Left thalamus, Talairach −32,8,−24): 6.46
- Z-score, region of activation (LTG day, within day, n = 10, 120% RMT-Rest, Right cingulate gyrus, Talairach 4,28,−16): 4.33
- Z-score, region of activation (LTG day, within day, n = 10, 120% RMT-Rest, Right middle frontal gyrus (BA 9), Talairach 48,36,12): 4.62
- Z-score, region of activation (LTG day, within day, n = 10, 120% RMT-Rest, Right superior temporal gyrus (BA 38), Talairach 40,−12,4): 3.14
- Voxels, effect of LTG (between day) (Cerebellum, Right): 70
- Z-score, effect of LTG (between day) (Cerebellum, Right, Talairach 13,−46,−23): 3.34
- Voxels, effect of LTG (between day) (Left Precentral gyrus (underneath TMS coil)): 82
- Z-score, effect of LTG (between day) (Left Precentral gyrus (underneath TMS coil), Talairach −32,−24,52): 3.87
- Voxels, effect of LTG (between day) (Posterior Cingulate, Left): 93
- Z-score, effect of LTG (between day) (Posterior Cingulate, Left, Talairach −1,−25,50): 3.95
- Voxels, effect of LTG (between day) (Precuneus, Left): 132
- Z-score, effect of LTG (between day) (Precuneus, Left, Talairach −1,−62,50): 3.48
- TMS-induced activation in the motor cortex (underneath the coil) and other regions, compared to placebo (formal between-day analysis, group data in 10 subjects): significantly less; also recorded: reduced
- % BOLD signal change in motor cortex compared with placebo (left primary motor cortex beneath the coil, 10 subjects, ANOVA F=11.89, p=0.007): significantly decreased
